According to patent US20220220103A1, “CYCLIN-DEPENDENT KINASE INHIBITORS” (SPV THERAPEUTICS INC., priority 2018, published 2022):
Several values for one entry are separate records, joined by “and”; a condition that tells them apart may be missing. Equal entries are not always repeated. Where two headings read alike, the source gives them in different places.

Tests used:
CDK4-CYCLIND1 = CDK4-CYCLIND1 (Homo sapiens, UniProt P11802); test: Microfluidic LabChip inhibition assay, CDK4-CYCLIND1; type: biochemical; settings: ATP 200 μM
CDK4-CYCLIND1, sequence (P11802 whole entry): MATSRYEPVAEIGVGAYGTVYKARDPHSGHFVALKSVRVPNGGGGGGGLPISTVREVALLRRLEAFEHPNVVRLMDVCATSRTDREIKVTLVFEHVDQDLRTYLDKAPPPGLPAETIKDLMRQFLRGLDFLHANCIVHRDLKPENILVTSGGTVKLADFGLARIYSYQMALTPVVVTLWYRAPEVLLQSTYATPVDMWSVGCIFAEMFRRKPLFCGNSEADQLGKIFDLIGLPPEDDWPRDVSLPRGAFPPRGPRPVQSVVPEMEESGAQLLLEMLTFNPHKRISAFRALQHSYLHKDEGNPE
CDK4-CYCLIND1, sequence (P24385 whole entry partner): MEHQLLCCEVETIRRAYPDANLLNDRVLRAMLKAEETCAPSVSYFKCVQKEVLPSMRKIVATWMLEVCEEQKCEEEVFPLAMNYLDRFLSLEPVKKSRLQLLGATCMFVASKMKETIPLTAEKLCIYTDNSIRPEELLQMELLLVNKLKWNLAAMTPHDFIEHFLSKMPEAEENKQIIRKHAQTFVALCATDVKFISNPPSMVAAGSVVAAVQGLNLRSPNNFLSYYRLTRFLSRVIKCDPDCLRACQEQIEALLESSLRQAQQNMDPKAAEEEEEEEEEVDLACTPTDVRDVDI
Experimental: (§1) The reaction was terminated by the addition of EDTA. The plates were analyzed using a Caliper LabChip 3000.
(§2) Additional inhibition assays were performed as described above.

CDK6-CYCLIND3 = CDK6-CYCLIND3 (Homo sapiens, UniProt Q00534); test: Microfluidic LabChip inhibition assay, CDK6-CYCLIND3; type: biochemical; settings: ATP 300 μM
CDK6-CYCLIND3, sequence (Q00534 whole entry): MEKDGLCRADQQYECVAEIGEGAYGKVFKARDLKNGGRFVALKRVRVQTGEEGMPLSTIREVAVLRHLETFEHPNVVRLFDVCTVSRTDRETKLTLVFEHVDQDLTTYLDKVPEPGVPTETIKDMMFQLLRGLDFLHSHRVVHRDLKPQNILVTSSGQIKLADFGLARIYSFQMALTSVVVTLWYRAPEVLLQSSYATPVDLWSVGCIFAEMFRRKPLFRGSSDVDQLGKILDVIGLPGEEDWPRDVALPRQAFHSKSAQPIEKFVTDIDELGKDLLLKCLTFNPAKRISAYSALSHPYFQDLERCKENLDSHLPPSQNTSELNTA
CDK6-CYCLIND3, sequence (P30281 whole entry partner): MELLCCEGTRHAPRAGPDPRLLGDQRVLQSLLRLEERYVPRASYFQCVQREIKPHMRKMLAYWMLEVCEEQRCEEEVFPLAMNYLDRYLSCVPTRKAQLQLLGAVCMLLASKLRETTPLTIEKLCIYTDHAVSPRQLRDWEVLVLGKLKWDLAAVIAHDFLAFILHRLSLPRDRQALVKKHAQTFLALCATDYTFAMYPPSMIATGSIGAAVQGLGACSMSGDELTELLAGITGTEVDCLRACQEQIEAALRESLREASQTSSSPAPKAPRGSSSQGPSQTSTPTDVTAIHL
Experimental: as §1, §2

[1] = Table 2, 25° C., read-out: CDK4 IC50
[2] = Table 2, 25° C., read-out: CDK6 IC50
[3] = Table 3a, second values in parentheses on the line below, not explained, read-out: CDK4 CyclinD1 IC50
[4] = Table 3b, second values in parentheses on the line below, not explained, read-out: CDK4 CyclinD1 IC50
[5] = Table 3a, read-out: CDK6 CyclinD3 IC50

Row | Compound | IC50 (CDK4-CYCLIND1; [1]) [nM] | IC50 (CDK6-CYCLIND3; [2]) [nM] | IC50 (CDK4-CYCLIND1; [3]) | IC50 (CDK4-CYCLIND1; [4]) | IC50 (CDK6-CYCLIND3; [5]) [nM]
1 | N#Cc1cc2cnc(Nc3ccc(OCCN4CCCC4)c(F)c3)nc2n(C2CCCC2)c1=O [Compound B30] | 7.62 | 24.2 |  |  | 
2 | N#Cc1cc2cnc(Nc3ccc(N4CC5(CNC5)C4)cc3)nc2n(C2CCCC2)c1=O [Compound B31, 2-((4-(2,6-diazaspiro[3.3]heptan-2-yl)phenyl)amino)-8-cyclopentyl-7-oxo-7,8-dihydropyrido[2,3-d]pyrimidine-6-carbonitrile] | 2.41 | 8.29 |  |  | 
3 | N#Cc1cc2cnc(Nc3ccc(N4CC5(CNC5)C4)cn3)nc2n(C2CCCC2)c1=O [Compound B32, 2-((5-(2,6-diazaspiro[3.3]heptan-2-yl)pyridin-2-yl)amino)-8-cyclopentyl-7-oxo-7,8-dihydropyrido[2,3-d]pyrimidine-6-carbonitrile] | 21.1 | 33.4 |  |  | 
4 | N#Cc1cc2cnc(Nc3ccc(N4CC5(CNC5)C4)nc3)nc2n(C2CCCC2)c1=O [Compound B33, 2-((6-(2,6-diazaspiro[3.3]heptan-2-yl)pyridin-3-yl)amino)-8-cyclopentyl-7-oxo-7,8-dihydropyrido[2,3-d]pyrimidine-6-carbonitrile] | 5.97 | 14.4 |  |  | 
5 | N#Cc1cc2cnc(Nc3ccc(N4CC5(CNC5)C4)c(F)c3)nc2n(C2CCCC2)c1=O [Compound B34, 8-cyclopentyl-2-((3-fluoro-4-(2,6-diazaspiro[3.3]heptan-2-yl)phenyl)amino)-7-oxo-7,8-dihydropyrido[2,3-d]pyrimidine-6-carbonitrile] | 1.21 | 3.89 |  |  | 
6 | CN(C)[C@H]1CCN(C(=O)c2ccc(Nc3ncc4cc(C#N)c(=O)n(C5CCCC5)c4n3)cc2)C1 [Compound B35, (S)-8-cyclopentyl-2-((4-(3-(dimethylamino)pyrrolidine-1-carbonyl)phenyl)amino)-7-oxo-7,8-dihydropyrido[2,3-d]pyrimidine-6-carbonitrile] | 3.84 | 22.3 |  |  | 
7 | CN(C)[C@H]1CCN(C(=O)c2ccc(Nc3ncc4cc(C#N)c(=O)n(C5CCCC5)c4n3)cc2F)C1 [Compound B36, (S)-8-cyclopentyl-2-((4-(3-(dimethylamino)pyrrolidine-1-carbonyl)-3-fluorophenyl)amino)-7-oxo-7,8-dihydropyrido[2,3-d]pyrimidine-6-carbonitrile] | 13.2 | 73.1 |  |  | 
8 | CCN1CCN(Cc2ccc(Nc3ncc4cc(C#N)c(=O)n(C5CCCC5)c4n3)nc2)CC1 [Compound B37, 8-cyclopentyl-2-((5-((4-ethylpiperazin-1-yl)methyl)pyridin-2-yl)amino)-7-oxo-7,8-dihydropyrido[2,3-d]pyrimidine-6-carbonitrile] | 46.3 | 93.6 |  |  | 
9 | N#Cc1cc2cnc(Nc3ccc(N4CCC(N5CCOCC5)CC4)cc3)nc2n(C2CCCC2)c1=O [Compound B38, 8-cyclopentyl-2-((4-(4-morpholinopiperidin-1-yl)phenyl)amino)-7-oxo-7,8-dihydropyrido[2,3-d]pyrimidine-6-carbonitrile] | 9.81 | 29.8 |  |  | 
10 | N#Cc1cc2cnc(Nc3ccc(N4CCC(N5CCOCC5)CC4)cn3)nc2n(C2CCCC2)c1=O [Compound B39, 8-cyclopentyl-2-((5-(4-morpholinopiperidin-1-yl)pyridin-2-yl)amino)-7-oxo-7,8-dihydropyrido[2,3-d]pyrimidine-6-carbonitrile] | 9.27 | 27.9 |  |  | 
11 | N#Cc1cc2cnc(Nc3ccc(N4CCC(N5CCOCC5)CC4)nc3)nc2n(C2CCCC2)c1=O [Compound B40, 8-cyclopentyl-2-((6-(4-morpholinopiperidin-1-yl)pyridin-3-yl)amino)-7-oxo-7,8-dihydropyrido[2,3-d]pyrimidine-6-carbonitrile] | 11.3 | 30.8 |  |  | 
12 | N#Cc1cc2cnc(Nc3ccc(N4CCC(N5CCOCC5)CC4)c(F)c3)nc2n(C2CCCC2)c1=O [Compound B41, 8-cyclopentyl-2-((3-fluoro-4-(4-morpholinopiperidin-1-yl)phenyl)amino)-7-oxo-7,8-dihydropyrido[2,3-d]pyrimidine-6-carbonitrile] | 7.88 | 27.9 |  |  | 
13 | CN(C)[C@H]1CCN(c2ccc(Nc3ncc4cc(C#N)c(=O)n(C5CCCC5)c4n3)cc2)C1 [Compound B42, (S)-8-cyclopentyl-2-((4-(3-(dimethylamino)pyrrolidin-1-yl)phenyl)amino)-7-oxo-7,8-dihydropyrido[2,3-d]pyrimidine-6-carbonitrile] | 2.31 | 6.01 |  |  | 
14 | CN(C)[C@H]1CCN(c2ccc(Nc3ncc4cc(C#N)c(=O)n(C5CCCC5)c4n3)nc2)C1 [Compound B43, (S)-8-cyclopentyl-2-((5-(3-(dimethylamino)pyrrolidin-1-yl)pyridin-2-yl)amino)-7-oxo-7,8-dihydropyrido[2,3-d]pyrimidine-6-carbonitrile] | 46.9 | 61.5 |  |  | 
15 | CN(C)[C@H]1CCN(c2ccc(Nc3ncc4cc(C#N)c(=O)n(C5CCCC5)c4n3)cn2)C1 [Compound B44, (S)-8-cyclopentyl-2-((6-(3-(dimethylamino)pyrrolidin-1-yl)pyridin-3-yl)amino)-7-oxo-7,8-dihydropyrido[2,3-d]pyrimidine-6-carbonitrile] | 10.6 | 30.9 |  |  | 
16 | CN(C)[C@H]1CCN(c2ccc(Nc3ncc4cc(C#N)c(=O)n(C5CCCC5)c4n3)cc2F)C1 [Compound B45, (S)-8-cyclopentyl-2-((4-(3-(dimethylamino)pyrrolidin-1-yl)-3-fluorophenyl)amino)-7-oxo-7,8-dihydropyrido[2,3-d]pyrimidine-6-carbonitrile] | 3.68 | 9.86 |  |  | 
17 | CC(=O)c1c(C)c2cnc(Nc3ccc(OCCN(C)C)nc3)nc2n(C2CCCC2)c1=O [Compound B63, 6-acetyl-8-cyclopentyl-2-((6-(2-(dimethylamino)ethoxy)pyridin-3-yl)amino)-5-methylpyrido[2,3-d]pyrimidin-7(8H)-one] |  |  | 8.64 nM and 6.36 nM | 8.64 nM and 6.36 nM | 37
18 | CC(=O)c1c(C)c2cnc(Nc3ccc(N(C)CCN(C)C)cc3)nc2n(C2CCCC2)c1=O [Compound B64, 6-acetyl-8-cyclopentyl-2-((4-((2-(dimethylamino)ethyl)(methyl)amino)phenyl)amino)-5-methylpyrido[2,3-d]pyrimidin-7(8H)-one] |  |  | 8.22 nM | 8.22 nM | 76.1
19 | CC(=O)c1c(C)c2cnc(Nc3ccc(OCCN(C)C)cn3)nc2n(C2CCCC2)c1=O [Compound B65, 6-acetyl-8-cyclopentyl-2-((5-(2-(dimethylamino)ethoxy)pyridin-2-yl)amino)-5-methylpyrido[2,3-d]pyrimidin-7(8H)-one] |  |  | 1.47 nM | 1.47 nM | 46.7
20 | CC(=O)c1c(C)c2cnc(Nc3ccc(OCCN4CCCCC4)cn3)nc2n(C2CCCC2)c1=O [Compound B67, 6-acetyl-8-cyclopentyl-5-methyl-2-((5-(2-(piperidin-1-yl)ethoxy)pyridin-2-yl)amino)pyrido[2,3-d]pyrimidin-7(8H)-one] |  |  | 48.8 nM | 48.8 nM | 298
21 | CN1CCN(c2ccc(Nc3ncc4cc(C(=O)N(C)C)c(=O)n(C5CCCC5)c4n3)cc2F)CC1 [Compound B139, 8-cyclopentyl-2-((3-fluoro-4-(4-methylpiperazin-1-yl)phenyl)amino)-N,N-dimethyl-7-oxo-7,8-dihydropyrido[2,3-d]pyrimidine-6-carboxamide] |  |  | 7.4 nM | 7.4 nM | 76.2
22 | CN1CCN(c2ccc(Nc3ncc4cc(C(=O)N(C)C)c(=O)n(C5CCCC5)c4n3)nc2)CC1 [Compound B141, 8-cyclopentyl-N,N-dimethyl-2-((5-(4-methylpiperazin-1-yl)pyridin-2-yl)amino)-7-oxo-7,8-dihydropyrido[2,3-d]pyrimidine-6-carboxamide] |  |  | 715 nM | 715 nM | 1990
23 | CNC(=O)c1cc2cnc(Nc3ccc(N4CCN(C)CC4)cc3)nc2n(C2CCCC2)c1=O [Compound B143, 8-cyclopentyl-N-methyl-2-((4-(4-methylpiperazin-1-yl)phenyl)amino)-7-oxo-7,8-dihydropyrido[2,3-d]pyrimidine-6-carboxamide] |  |  | 17 nM |  | 134
24 | CNC(=O)c1cc2cnc(Nc3ccc(N4CCN(C)CC4)c(F)c3)nc2n(C2CCCC2)c1=O [Compound B144, 8-cyclopentyl-2-((3-fluoro-4-(4-methylpiperazin-1-yl)phenyl)amino)-N-methyl-7-oxo-7,8-dihydropyrido[2,3-d]pyrimidine-6-carboxamide] |  |  | 13.6 nM and 10 nM | 13.6 nM and 10 nM | 138
25 | CNC(=O)c1cc2cnc(Nc3ccc(N4CCN(C)CC4)nc3)nc2n(C2CCCC2)c1=O [Compound B145, 8-cyclopentyl-N-methyl-2-((6-(4-methylpiperazin-1-yl)pyridin-3-yl)amino)-7-oxo-7,8-dihydropyrido[2,3-d]pyrimidine-6-carboxamide] |  |  | 370 nM | 370 nM | 2240
26 | CC(=O)NC(=O)c1cc2cnc(Nc3ccc(N4CCN(C)CC4)cn3)nc2n(C2CCCC2)c1=O [Compound B146, N-acetyl-8-cyclopentyl-2-((5-(4-methylpiperazin-1-yl)pyridin-2-yl)amino)-7-oxo-7,8-dihydropyrido[2,3-d]pyrimidine-6-carboxamide] |  |  | 459 nM | 459 nM | 1490
27 | N#Cc1cc2cnc(Nc3ccc(N4CCNCC4)c(F)c3)nc2n(C23CC(C2)C3)c1=O [Compound B147, 8-(bicyclo[1.1.1]pentan-1-yl)-2-((3-fluoro-4-(piperazin-1-yl)phenyl)amino)-7-oxo-7,8-dihydropyrido[2,3-d]pyrimidine-6-carbonitrile] |  |  | 47 nM | 47 nM | 81.7
